Laboratory results: patent publication US11926619B2, “Certain pladienolide compounds and methods of use” (EISAI R&D MANAGEMENT CO., LTD., priority 2018, dated 2024)

What was measured:
[1] = test system: WiDr-R cells (colon cancer cells; chemically-induced SF3B1 R1074H mutant); assay: Cell viability assay (CellTiter-Glo, 72 hr), resistant WiDr-R cells (counter-screen); format: cell-based; details: WiDr-R cells (SF3B1 R1074H mutation, resistant); read-out: WiDr-R GI50
Method in brief: (§1)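 Cells at 2000/well were exposed to 9 compound concentrations (0.1% DMSO) in duplicate or triplicate for 72 hr at 37 °C. ATP was read by CellTiter-Glo against a time-zero plate and DMSO control growth. Percent growth/viability was plotted against concentration to give Emax; negative values indicate lethality.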

[2] = test system: WiDr cells (colon cancer cells; wildtype SF3B1); assay: Cell viability assay (CellTiter-Glo, 72 hr), WiDr cells; format: cell-based; details: Homo sapiens; WiDr cells (wildtype SF3B1); read-out: WiDr GI50
Method in brief: as §1

SF3b complexes = biological target: T1, SF3b complexes (Homo sapiens, UniProt O75533+Q7RTV0); assay: Scintillation proximity assay (SPA) with [3H]-labelled pladienolide probe; format: binding; details: wt SF3B1, read-out: SPA (wt SF3B1 cells) IC50
T1 construct: endogenous in cells
Method: Batch immobilization of anti-SF3B1 antibody (MBL) to anti-mouse PVT SPA scintillation beads (PerkinElmer) was prepared as follows: for every 2.5 mg of nuclear extracts, 5 μg anti-SF3B1 antibody and 1.5 mg of beads were mixed in 150 μl PBS. The antibody-bead mixture was incubated for 30 min at RT and centrifuged at 18,000 g for 5 min. 150 μl PBS was used to resuspend every 1.5 mg antibody-bead mixture. The beads were suspended and added to the prepared nuclear extracts. The slurry was incubated for 2 h at 4° C. with gentle mixing. The beads were then collected by centrifuging at 18,000 g for 5 min, and washed twice with PBS+0.1% Triton X-100. After a final centrifugation step, every 1.5 mg of beads was suspended with 150 μl of PBS. The SF3b complexes were tested for [^3H]-labelled pladienolide probe binding ([^3H]-PB), synthesized as previously described (Kotake et al., 2007). 100 μL binding reactions were prepared with 50 μl bead slurry and by adding varying concentrations of PB or PB—OH, and after 30 min pre-incubation, 2.5 nM [^3H]—PB was added. The mixture was incubated for 30 min, and luminescence signals were read using a MicroBeta2 Plate Counter (PerkinElmer). Prism 6 (Graphpad) was used for non-linear regression curve fitting of the data.

[3] = test system: Panc 05.04 cells (pancreatic cancer cells; Q699H and K700E mutations in SF3B1); assay: Cell viability assay (CellTiter-Glo, 72 hr), Panc 05.04 cells; format: cell-based; details: Panc 05.04 cells (mutant SF3B1); for Emax: maximum achievable response in tested dose range, negative value = cellular lethality, read-out: Panc 05.04 (mt SF3B1 cells) Emax (%); for GI50: read-out: Panc 05.04 (mt SF3B1 cells), GI50
Method in brief: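 Viability was read as ATP content (CellTiter-Glo) after 72 hr compound exposure of Panc 05.04 cells at 37 °C, nine concentrations, 0.1% DMSO. Percentage growth was referenced to time-zero and vehicle wells and plotted against concentration to obtain Emax; negative Emax denotes cell killing.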

SMILES	GI50 [1]	GI50 [2]	IC50 (SF3b complexes)	Emax [3]	GI50 [3]
C/C(=C\C=C\[C@@H](C)c1ccccn1)[C@H]1OC(=O)C[C@H](O)CC[C@@](C)(O)[C@@H](OC(=O)N2CCN(C(C)(C)C)CC2)/C=C/[C@@H]1C	> 1000 nM	76 nM	13.1 nM	-78.1%	66 nM
C/C(=C\C=C\[C@@H](C)COC(=O)N1CCCC1)[C@H]1OC(=O)C[C@H](O)CC[C@](C)(O)[C@@H](OC(=O)N2CCN(C)CC2)/C=C/[C@@H]1C	> 1000 nM	7.12 nM	5.69 nM	-83.7%	3.14 nM
C/C(=C\C=C\C(C)c1cccnn1)[C@H]1OC(=O)C[C@H](O)CC[C@@](C)(O)[C@@H](OC(=O)N2CCN(C3CCCCCC3)CC2)/C=C/[C@@H]1C (stereo partly drawn)	> 1000 nM	15.1 nM	3.38 nM	-94.7%	22 nM
C/C(=C\C=C\[C@@H](C)c1ccccn1)[C@H]1OC(=O)C[C@H](O)CC[C@@](C)(O)[C@@H](OC(=O)N2CCN(C3CCCCC3)CC2)/C=C/[C@@H]1C	> 1000 nM	21.2 nM	3.32 nM	-94.3%	21.4 nM
C/C(=C\C=C\[C@@H](C)COC(=O)N1CC[C@@H](O)C1)[C@H]1OC(=O)CCCCC[C@@H](OC(=O)N2CCN(C3CCCCCC3)CC2)/C=C/[C@@H]1C	> 1000 nM	45.5 nM	40.2 nM	-81.6%	35.2 nM
CC(=O)O[C@H]1/C=C/[C@H](C)[C@@H](/C(C)=C/C=C/[C@@H](C)COC(=O)N2CCN(C)CC2)OC(=O)C[C@H](O)CC[C@@]1(C)O	> 1000 nM	106 nM	236 nM	-88.8%	203 nM
C/C(=C\C=C\[C@@H](C)c1ccccn1)[C@H]1OC(=O)C[C@H](O)CC[C@@](C)(O)[C@@H](OC(=O)N2CCNCC2)/C=C/[C@@H]1C	> 1000 nM	16 nM	26.9 nM	-76.5%	39.5 nM
C/C(=C\C=C\[C@@H](C)COC(=O)N1CCCC1(C)C)[C@H]1OC(=O)C[C@H](O)CC[C@@](C)(O)[C@@H](OC(=O)N2CCN(C)CC2)/C=C/[C@@H]1C	> 1000 nM	9.61 nM	3.73 nM	-93.7%	7.82 nM
C/C(=C\C=C\[C@@H](C)COC(=O)N1[C@H](C)CC[C@H]1C)[C@H]1OC(=O)C[C@H](O)CC[C@@](C)(O)[C@@H](OC(=O)N2CCN(C)CC2)/C=C/[C@@H]1C	> 1000 nM	1.03 nM	2.77 nM	-68.1%	1.12 nM
CC(=O)O[C@H]1/C=C/[C@H](C)[C@@H](/C(C)=C/C=C/[C@@H](C)COC(=O)N2CCCC2)OC(=O)C[C@H](O)CC[C@@]1(C)O	> 1000 nM	4.83 nM	2.75 nM	-94.1%	20.1 nM
C/C(=C\C=C\[C@H](C)c1ccccn1)[C@H]1OC(=O)C[C@H](O)CC[C@@](C)(O)[C@@H](OC(=O)N2CCC(N3CCCCCC3)CC2)/C=C/[C@@H]1C	> 1000 nM	7.18 nM	2.35 nM	-93.8%	13.6 nM
CC[C@H](O)[C@@H](C)[C@H]1O[C@@H]1C[C@@](C)(O)/C=C/C=C(\C)[C@H]1OC(=O)C[C@H](O)CC[C@H](C)[C@@H](OC(C)=O)/C=C/[C@@H]1C	822 nM	2.14 nM	5.28 nM	-65.3%	4.88 nM
C/C(=C\C=C\[C@@H](C)c1ccccn1)[C@H]1OC(=O)C[C@H](O)CC[C@H](C)[C@@H](OC(=O)N(C)C)/C=C/[C@@H]1C	> 10000 nM	479 nM	142 nM	24%	1720 nM
C/C(=C\C=C\[C@@H](C)COC(=O)N1CCCC1)[C@H]1OC(=O)C[C@H](O)CC[C@@](C)(O)[C@@H](OC(=O)N2CCN(C3CCCCCC3)CC2)/C=C/[C@@H]1C	> 1000 nM	2.54 nM	2.83 nM	-87.3%	1.66 nM
C/C(=C\C=C\C(C)c1cc(C)ccn1)[C@H]1OC(=O)C[C@H](O)CC[C@@](C)(O)[C@@H](OC(=O)N2CCN(C3CCCCCC3)CC2)/C=C/[C@@H]1C (stereo partly drawn)	> 1000 nM	58.7 nM	6.79 nM	-92.4%	59.9 nM
C/C(=C\C=C\[C@@H](C)c1cccnc1)[C@H]1OC(=O)C[C@H](O)CC[C@@](C)(O)[C@@H](OC(=O)N2CCN(C3CCCCCC3)CC2)/C=C/[C@@H]1C	> 1000 nM	13.2 nM	2.34 nM	-95.6%	11 nM
C/C(=C\C=C\[C@@H](C)COC(=O)N1CCC[C@H]1CF)[C@H]1OC(=O)C[C@H](O)CC[C@@](C)(O)[C@@H](OC(=O)N2CCN(C3CCCCCC3)CC2)/C=C/[C@@H]1C	> 1000 nM	1.24 nM	4.23 nM	-72.7%	1.75 nM
C/C(=C\C=C\C(C)c1cnccn1)[C@H]1OC(=O)C[C@H](O)CC[C@@](C)(O)[C@@H](OC(=O)N2CCN(C3CCCCCC3)CC2)/C=C/[C@@H]1C (stereo partly drawn)	> 10000 nM	31.9 nM	6.37 nM	-93.7%	22.1 nM
CCCNC(=O)OC[C@H](C)/C=C/C=C(\C)[C@H]1OC(=O)C[C@H](O)CC[C@@](C)(O)[C@@H](OC(C)=O)/C=C/[C@@H]1C	> 10000 nM	1940 nM	473 nM	40.5%	4590 nM
C/C(=C\C=C\[C@H](C)c1ccccn1)[C@H]1OC(=O)C[C@H](O)CC[C@@](C)(O)[C@@H](OC(=O)N2CCN(C)CC2)/C=C/[C@@H]1C	> 1000 nM	34.3 nM	5.69 nM	-49.2%	53.6 nM
C/C(=C\C=C\[C@@H](C)COC(=O)N1CC=CC1)[C@H]1OC(=O)C[C@H](O)CC[C@@](C)(O)[C@@H](OC(=O)N2CCN(C3CCCCCC3)CC2)/C=C/[C@@H]1C	> 1000 nM	22.2 nM	3.68 nM	-89.8%	3.68 nM
C/C(=C\C=C\[C@@H](C)c1ccccn1)[C@H]1OC(=O)C[C@H](O)CC[C@@](C)(O)[C@@H](OC(=O)N2CC3(C2)CN(C2CCCCCC2)C3)/C=C/[C@@H]1C	> 1000 nM	130 nM	71.3 nM	-41.9%	115 nM
CC[C@H](OC(C)=O)[C@@H](C)[C@H]1O[C@@H]1C[C@@](C)(O)/C=C/C=C(\C)[C@H]1OC(=O)C[C@H](O)CC[C@@](C)(O)[C@@H](OC(=O)N2CCN(C3CCCCCC3)CC2)/C=C/[C@@H]1C	132 nM	2 nM	5.85 nM	-78.6%	2.41 nM
C/C(=C\C=C\C(C)c1ncccn1)[C@H]1OC(=O)C[C@H](O)CC[C@@](C)(O)[C@@H](OC(=O)N2CCN(C3CCCCCC3)CC2)/C=C/[C@@H]1C (stereo partly drawn)	> 1000 nM	45.9 nM	11.9 nM	-91.6%	31 nM
CCO[C@]1(C)CC[C@@H](O)CC(=O)O[C@H](/C(C)=C/C=C/[C@](C)(O)C[C@H]2O[C@@H]2[C@H](C)[C@@H](O)CC)[C@@H](C)/C=C/[C@@H]1OC(=O)N1CCNCC1	–	–	9.23 nM	-75.4%	1.76 nM
CC[C@H](O)[C@@H](C)[C@H]1O[C@@H]1C[C@@](C)(O)/C=C/C=C(\C)[C@H]1OC(=O)C[C@H](O)CC[C@@](C)(OC(C)=O)[C@@H](OC(=O)N2CCNCC2)/C=C/[C@@H]1C	–	–	8.78 nM	-73.2%	26.8 nM
C/C(=C\C=C\[C@@H](C)c1ccccn1)[C@H]1OC(=O)C[C@H](O)CC[C@@](C)(O)[C@@H](OC(=O)N2CC[N+](C)([O-])CC2)/C=C/[C@@H]1C	–	–	5.89 nM	-81.2%	45.4 nM
CC[C@H](O)[C@@H](C)[C@H]1O[C@@H]1C[C@@](C)(O)/C=C/C=C(\C)[C@H]1OC(=O)C[C@H](O)CC[C@@](C)(OC(=O)N2CCNCC2)[C@@H](OC(C)=O)/C=C/[C@@H]1C	–	–	5.92 nM	-74.2%	23.5 nM
C/C(=C\C=C\[C@@H](C)c1ccccn1)[C@H]1OC(=O)C[C@H](O)CC[C@@](C)(O)[C@@H](OC(=O)N2CCC(N3CC4CCC(C3)C4(F)F)CC2)/C=C/[C@@H]1C	–	–	47.3 nM	-90.3%	76.1 nM
